Results on three compounds are retold here after ChEMBL document CHEMBL4229543, “Squaramides as novel class I and IIB histone deacetylase inhibitors for topical treatment of cutaneous t-cell lymphoma” (Bioorg Med Chem Lett, 2018).

Molecules are shown by their SMILES.

Histone deacetylase 1, sequence (Q13547 whole entry): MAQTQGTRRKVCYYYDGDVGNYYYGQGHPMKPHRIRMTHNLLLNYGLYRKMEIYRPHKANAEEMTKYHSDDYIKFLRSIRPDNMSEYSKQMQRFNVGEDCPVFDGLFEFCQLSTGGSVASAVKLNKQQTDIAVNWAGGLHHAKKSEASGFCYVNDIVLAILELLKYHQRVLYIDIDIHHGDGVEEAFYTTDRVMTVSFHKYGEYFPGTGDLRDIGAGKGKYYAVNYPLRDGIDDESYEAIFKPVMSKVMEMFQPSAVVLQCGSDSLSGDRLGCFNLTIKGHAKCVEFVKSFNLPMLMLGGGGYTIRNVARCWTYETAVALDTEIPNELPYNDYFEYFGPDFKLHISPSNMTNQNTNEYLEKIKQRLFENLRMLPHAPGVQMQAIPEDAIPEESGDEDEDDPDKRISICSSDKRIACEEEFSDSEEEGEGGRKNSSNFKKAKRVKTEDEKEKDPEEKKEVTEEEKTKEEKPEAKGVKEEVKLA

The first experiment addresses Histone deacetylase 1 (Homo sapiens, UniProt Q13547). The experiment in a line: Inhibition of human recombinant HDAC1 using fluorogenic HDAC substrate after 15 mins by fluorimetrc method.
Usually Ki stands for the dissociation constant of the complex between target and ligand, obtained from inhibition or displacement. Turning to `CC(Nc1c(NCCCCCC(=O)NO)c(=O)c1=O)C12CC3CC(CC(C3)C1)C2` (stereo unspecified), the Ki amounted to 48 nM.

Take `COc1ccc(Nc2c(NCCCCCC(=O)NO)c(=O)c2=O)cc1`: the Ki was 0.34 nM.

For the compound `CC(C)(CCCCC(=O)NO)Nc1c(Nc2ccc(C(F)(F)F)cc2)c(=O)c1=O`, the Ki was 1 nM.

The target in another experiment is Histone deacetylase 3 (Homo sapiens, UniProt O15379). Kind of experiment: Inhibition of human recombinant HDAC3 using fluorogenic HDAC substrate after 10 mins by […] method.
Histone deacetylase 3, sequence (O15379 whole entry): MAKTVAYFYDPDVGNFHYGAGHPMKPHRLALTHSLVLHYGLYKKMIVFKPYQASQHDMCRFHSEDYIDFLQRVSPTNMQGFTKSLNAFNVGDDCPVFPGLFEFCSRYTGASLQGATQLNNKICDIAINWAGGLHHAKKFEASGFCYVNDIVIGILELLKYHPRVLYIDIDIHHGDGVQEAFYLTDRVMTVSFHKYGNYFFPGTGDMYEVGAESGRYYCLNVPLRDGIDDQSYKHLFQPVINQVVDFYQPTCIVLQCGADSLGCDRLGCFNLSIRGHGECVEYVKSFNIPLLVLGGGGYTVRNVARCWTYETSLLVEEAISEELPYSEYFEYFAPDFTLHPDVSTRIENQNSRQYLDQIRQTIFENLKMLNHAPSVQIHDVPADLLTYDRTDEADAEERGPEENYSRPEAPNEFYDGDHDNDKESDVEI
As for `CC(Nc1c(NCCCCCC(=O)NO)c(=O)c1=O)C12CC3CC(CC(C3)C1)C2` (stereo unspecified), the Ki came out at 58 nM.

With `COc1ccc(Nc2c(NCCCCCC(=O)NO)c(=O)c2=O)cc1`, the Ki stood at 0.8 nM.

In the case of `CC(C)(CCCCC(=O)NO)Nc1c(Nc2ccc(C(F)(F)F)cc2)c(=O)c1=O`, the inhibitory constant (Ki) is 12 nM.

In another experiment the target is T1, Histone deacetylase 8 (Homo sapiens, UniProt Q9BY41).
T1 sequence (Q9BY41 whole entry): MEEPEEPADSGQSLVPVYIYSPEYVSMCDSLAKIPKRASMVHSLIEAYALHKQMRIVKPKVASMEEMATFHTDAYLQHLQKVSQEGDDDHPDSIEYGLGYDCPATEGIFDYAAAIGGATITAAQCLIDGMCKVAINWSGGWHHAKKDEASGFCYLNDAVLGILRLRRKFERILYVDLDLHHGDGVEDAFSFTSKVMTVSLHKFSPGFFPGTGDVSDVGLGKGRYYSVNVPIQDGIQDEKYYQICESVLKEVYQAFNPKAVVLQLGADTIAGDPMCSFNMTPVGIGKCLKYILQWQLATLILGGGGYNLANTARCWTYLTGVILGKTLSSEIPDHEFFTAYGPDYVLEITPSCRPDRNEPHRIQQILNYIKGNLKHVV
Kind of experiment: Inhibition of human recombinant HDAC8 using fluorogenic HDAC substrate after 15 mins by fluorimetrc method.
Regarding `CC(Nc1c(NCCCCCC(=O)NO)c(=O)c1=O)C12CC3CC(CC(C3)C1)C2` (stereo unspecified), the Ki came out at 320 nM.

Regarding `COc1ccc(Nc2c(NCCCCCC(=O)NO)c(=O)c2=O)cc1`, the inhibition constant (Ki) came to 100 nM.

As to `CC(C)(CCCCC(=O)NO)Nc1c(Nc2ccc(C(F)(F)F)cc2)c(=O)c1=O`, the Ki came out at 110 nM.

For the next experiment, the target named is Histone deacetylase 9 (Homo sapiens, UniProt Q9UKV0). The experiment in a line: Inhibition of human recombinant HDAC9 using fluorogenic HDAC substrate class 2a after 30 mins by fluorimetrc method.
Histone deacetylase 9, sequence (Q9UKV0 whole entry): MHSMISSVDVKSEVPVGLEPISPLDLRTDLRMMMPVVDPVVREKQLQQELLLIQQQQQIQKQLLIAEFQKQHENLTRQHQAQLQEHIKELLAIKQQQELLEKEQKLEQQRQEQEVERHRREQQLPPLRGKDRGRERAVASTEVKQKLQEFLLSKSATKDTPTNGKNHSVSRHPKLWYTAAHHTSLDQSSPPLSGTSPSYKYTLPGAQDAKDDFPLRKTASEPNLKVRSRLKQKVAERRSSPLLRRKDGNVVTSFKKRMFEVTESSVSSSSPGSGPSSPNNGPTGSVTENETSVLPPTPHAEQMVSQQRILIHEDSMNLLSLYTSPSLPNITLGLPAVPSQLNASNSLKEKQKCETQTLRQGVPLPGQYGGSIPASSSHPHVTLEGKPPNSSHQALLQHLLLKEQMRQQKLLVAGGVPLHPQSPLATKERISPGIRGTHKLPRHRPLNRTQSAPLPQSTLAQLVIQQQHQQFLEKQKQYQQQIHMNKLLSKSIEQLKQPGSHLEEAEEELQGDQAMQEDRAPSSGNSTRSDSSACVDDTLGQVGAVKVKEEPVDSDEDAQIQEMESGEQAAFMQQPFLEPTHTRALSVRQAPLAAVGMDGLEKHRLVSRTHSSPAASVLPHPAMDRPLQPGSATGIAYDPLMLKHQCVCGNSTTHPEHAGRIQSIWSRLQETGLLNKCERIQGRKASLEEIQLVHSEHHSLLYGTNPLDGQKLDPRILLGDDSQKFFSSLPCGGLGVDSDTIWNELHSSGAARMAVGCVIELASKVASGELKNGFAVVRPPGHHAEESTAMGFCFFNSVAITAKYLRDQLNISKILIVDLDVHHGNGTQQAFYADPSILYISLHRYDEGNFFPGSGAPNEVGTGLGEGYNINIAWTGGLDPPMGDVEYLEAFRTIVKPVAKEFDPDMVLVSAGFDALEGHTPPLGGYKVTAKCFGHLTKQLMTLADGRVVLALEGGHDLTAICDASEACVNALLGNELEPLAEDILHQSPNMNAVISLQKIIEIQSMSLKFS
For `CC(Nc1c(NCCCCCC(=O)NO)c(=O)c1=O)C12CC3CC(CC(C3)C1)C2` (stereo unspecified), the Ki was over 10000 nM.

For `COc1ccc(Nc2c(NCCCCCC(=O)NO)c(=O)c2=O)cc1`, the inhibitory constant (Ki) is over 10000 nM.

As for `CC(C)(CCCCC(=O)NO)Nc1c(Nc2ccc(C(F)(F)F)cc2)c(=O)c1=O`, the inhibitory constant (Ki) is over 10000 nM.

Another experiment addresses T2, Protein deacetylase HDAC6 (Homo sapiens, UniProt Q9UBN7).
T2 sequence (Q9UBN7 whole entry): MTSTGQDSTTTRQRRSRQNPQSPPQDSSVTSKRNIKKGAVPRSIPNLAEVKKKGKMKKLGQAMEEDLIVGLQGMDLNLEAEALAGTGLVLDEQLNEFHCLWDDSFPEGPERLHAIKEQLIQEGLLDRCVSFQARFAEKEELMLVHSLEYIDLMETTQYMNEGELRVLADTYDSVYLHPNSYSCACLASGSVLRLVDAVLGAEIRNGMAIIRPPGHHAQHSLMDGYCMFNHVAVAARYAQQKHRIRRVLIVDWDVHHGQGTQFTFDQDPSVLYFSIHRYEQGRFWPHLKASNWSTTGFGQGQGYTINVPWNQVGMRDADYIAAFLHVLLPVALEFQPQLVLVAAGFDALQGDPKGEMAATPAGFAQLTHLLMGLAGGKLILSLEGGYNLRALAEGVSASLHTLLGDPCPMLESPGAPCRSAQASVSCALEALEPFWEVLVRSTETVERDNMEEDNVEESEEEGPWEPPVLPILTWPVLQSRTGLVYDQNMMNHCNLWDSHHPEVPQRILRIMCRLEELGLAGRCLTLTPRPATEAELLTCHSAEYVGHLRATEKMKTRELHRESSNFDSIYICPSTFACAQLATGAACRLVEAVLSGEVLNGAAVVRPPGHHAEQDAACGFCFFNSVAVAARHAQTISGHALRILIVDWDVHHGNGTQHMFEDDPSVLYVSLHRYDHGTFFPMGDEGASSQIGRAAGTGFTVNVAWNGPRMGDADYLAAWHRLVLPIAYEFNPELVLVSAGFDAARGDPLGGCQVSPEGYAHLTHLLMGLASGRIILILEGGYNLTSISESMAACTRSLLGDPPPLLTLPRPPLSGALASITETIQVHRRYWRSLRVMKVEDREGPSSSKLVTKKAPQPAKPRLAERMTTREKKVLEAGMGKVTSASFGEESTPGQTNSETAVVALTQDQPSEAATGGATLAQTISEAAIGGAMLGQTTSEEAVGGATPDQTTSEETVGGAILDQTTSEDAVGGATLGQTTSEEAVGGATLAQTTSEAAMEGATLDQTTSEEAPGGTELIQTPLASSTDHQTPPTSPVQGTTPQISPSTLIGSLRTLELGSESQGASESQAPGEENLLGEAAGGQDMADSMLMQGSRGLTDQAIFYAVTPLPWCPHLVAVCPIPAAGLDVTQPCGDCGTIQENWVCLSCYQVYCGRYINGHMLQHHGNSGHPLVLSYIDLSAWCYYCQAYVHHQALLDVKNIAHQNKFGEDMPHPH
The experiment in a line: Inhibition of human recombinant HDAC6 using fluorogenic HDAC substrate after 30 mins by fluorimetrc method.
As to `CC(Nc1c(NCCCCCC(=O)NO)c(=O)c1=O)C12CC3CC(CC(C3)C1)C2` (stereo unspecified), the inhibition constant (Ki) is 130 nM.

`COc1ccc(Nc2c(NCCCCCC(=O)NO)c(=O)c2=O)cc1`: the Ki was 23 nM.

On to `CC(C)(CCCCC(=O)NO)Nc1c(Nc2ccc(C(F)(F)F)cc2)c(=O)c1=O`, for which the Ki stood at 130 nM.

The target in another experiment is T3, Polyamine deacetylase HDAC10 (Homo sapiens, UniProt Q969S8).
T3 sequence (Q969S8 whole entry): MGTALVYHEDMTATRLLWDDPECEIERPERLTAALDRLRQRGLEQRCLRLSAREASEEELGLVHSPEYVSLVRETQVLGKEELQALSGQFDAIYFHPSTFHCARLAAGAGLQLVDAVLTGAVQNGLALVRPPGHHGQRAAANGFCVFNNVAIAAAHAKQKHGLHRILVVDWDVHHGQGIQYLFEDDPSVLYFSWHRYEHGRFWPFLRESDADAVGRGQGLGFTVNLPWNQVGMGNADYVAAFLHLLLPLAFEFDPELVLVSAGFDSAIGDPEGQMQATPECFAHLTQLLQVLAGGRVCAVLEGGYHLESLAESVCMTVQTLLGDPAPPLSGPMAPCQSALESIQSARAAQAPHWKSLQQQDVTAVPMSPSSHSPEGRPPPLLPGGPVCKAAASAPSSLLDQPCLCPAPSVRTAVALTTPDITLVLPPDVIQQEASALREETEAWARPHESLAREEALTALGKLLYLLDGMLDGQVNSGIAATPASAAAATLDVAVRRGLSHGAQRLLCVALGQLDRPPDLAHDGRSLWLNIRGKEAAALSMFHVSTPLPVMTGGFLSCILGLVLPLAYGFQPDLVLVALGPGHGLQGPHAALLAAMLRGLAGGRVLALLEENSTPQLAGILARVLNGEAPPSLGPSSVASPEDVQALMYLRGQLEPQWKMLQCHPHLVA
Kind of experiment: Inhibition of human recombinant HDAC10 using fluorogenic HDAC substrate after 45 mins by fluorimetrc method.
For `CC(Nc1c(NCCCCCC(=O)NO)c(=O)c1=O)C12CC3CC(CC(C3)C1)C2` (stereo unspecified), the Ki worked out at 50 nM.

For `COc1ccc(Nc2c(NCCCCCC(=O)NO)c(=O)c2=O)cc1`, the Ki stood at 1.2 nM.

Consider `CC(C)(CCCCC(=O)NO)Nc1c(Nc2ccc(C(F)(F)F)cc2)c(=O)c1=O`, for which the inhibition constant (Ki) was found to be 3 nM.

The next experiment has as its target T4, NAD-dependent protein deacetylase sirtuin-3, mitochondrial (Homo sapiens, UniProt Q9NTG7).
T4 sequence (Q9NTG7 whole entry): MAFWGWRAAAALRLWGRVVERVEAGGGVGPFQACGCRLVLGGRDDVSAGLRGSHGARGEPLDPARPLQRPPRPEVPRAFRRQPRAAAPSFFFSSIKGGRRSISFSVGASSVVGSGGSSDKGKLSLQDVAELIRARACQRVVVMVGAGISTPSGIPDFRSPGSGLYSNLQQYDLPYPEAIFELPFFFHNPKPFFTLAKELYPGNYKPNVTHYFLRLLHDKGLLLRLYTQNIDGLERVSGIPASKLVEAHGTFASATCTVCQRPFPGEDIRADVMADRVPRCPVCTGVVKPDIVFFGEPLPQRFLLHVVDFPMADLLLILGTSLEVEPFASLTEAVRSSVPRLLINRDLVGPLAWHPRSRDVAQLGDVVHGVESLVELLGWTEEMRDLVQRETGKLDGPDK
The experiment in a line: Inhibition of human recombinant SIRT3 using fluoro-lysine sirtuin 2 deacetylase substrate after 45 mins by fluorimetrc method.
For the compound `CC(Nc1c(NCCCCCC(=O)NO)c(=O)c1=O)C12CC3CC(CC(C3)C1)C2` (stereo unspecified), the Ki is over 10000 nM.

For the compound `COc1ccc(Nc2c(NCCCCCC(=O)NO)c(=O)c2=O)cc1`, the Ki was over 10000 nM.

For `CC(C)(CCCCC(=O)NO)Nc1c(Nc2ccc(C(F)(F)F)cc2)c(=O)c1=O`, the inhibition constant (Ki) was over 10000 nM.
